Values of other authors, collected in patent publication US20110052727A1, “Anti Influenza Nutritional Supplements” (priority 2009, published 2011).
Read-outs that look alike come from different tables or passages of the source.

How the values were obtained:
MDCK cells [1] = settings: up to 1 mM
[2] = test system: influenza virus A/Puerto Rico/8/34 (H1N1)
[3] = test system: influenza virus A/Udorn/317/72(H3N2); settings: quercetin orally 1 mg/day for 5 consecutive days
influenza A Bangkok 1/79 = settings: Se- vs Se+ conditions; 24 hours post infection
[4] = test system: influenza A/Bangkok/1/79 virus; settings: selenium adequate diet, vs deficient diet still severe at day 21
[5] = test system: influenza A/Kumamoto/1/65 virus
[6] = test system: influenza A/Chile/1/83 (H1N1) virus; settings: MDCK cells; read-out: 50% effective inhibition concentration (EC50)
[7] = test system: influenza A/Chile/1/83 (H1N1) virus; settings: 500 μM
neuraminidase = settings: read-out: concentration for reduction of half enzymatic activity (neuraminidase)
MDCK cells [8] = settings: read-out: dose that reduced cell viability about 50% (CC50)
[9] = test system: influenza A/Chile/1/83 (H1N1) virus; settings: compared with ECG and EGC
MDCK cells [10] = test system: MDCK cells
[11] = test system: Influenza A Virus (Strain A/Yamagata/120/86 H1N1); settings: 1.5 μM; 60 min treatment
MDCD cells = settings: 100 μg/ml

NC(=O)c1c[se]c([C@@H]2O[C@H](CO)[C@@H](O)[C@H]2O)n1 [Selenazofurin, selenazofurin]
cytotoxic effect on cells (MDCK cells [1]): no cytotoxic effect

O=c1c(O)c(-c2ccc(O)c(O)c2)oc2cc(O)cc(O)c12 [quercetin, Quercetin]
decrease of mortality in the control group (infected and did not exercise) ([2]; quercetin 12.5 mg/kg via gavage for 7 days before viral challenge, 21 days monitoring): 22% | susceptibility to infection (morbidity, mortality, symptom severity on days 5-7) associated with stressful exercise ([2]; quercetin 12.5 mg/kg via gavage for 7 days, P<0.05): offset the increase in susceptibility to infection | epithelial damage and leukocytic influx [3]: significantly reduced | superoxide radicals production levels [3]: significantly reduced their levels | lipid peroxidation (LPO) products level after supplementation (raised by 85% in influenza group vs normal control) ([3]; P<0.05): 43%

[Se] [selenium, Selenium]
influenza-induced apoptosis (influenza A Bangkok 1/79): Se deficiency enhanced influenza-induced apoptosis | lung pathology [4]: began to diminish after day 6

O=C/C=C/c1ccccc1 [CA, trans-cinnamaldehyde]
virus yield of control (maximum inhibitory effect) (influenza A/PR/8 virus; 40 μM, treatment given 3 hours post infection): 29.7% | virus yield (influenza A/PR/8 virus; 200 μM): undetectable level

CC1(C)[C@@H](O[C@H]2O[C@H](C(=O)O)[C@@H](O)[C@H](O)[C@H]2O[C@@H]2O[C@H](C(=O)O)[C@@H](O)[C@H](O)[C@H]2O)CC[C@]2(C)[C@H]3C(=O)C=C4[C@@H]5C[C@@](C)(C(=O)O)CC[C@]5(C)CC[C@@]4(C)[C@]3(C)CC[C@@H]12 [Glycyrrhizin]
survival ([5]; 10 mg/kg 1 day before and 1 and 4 days post infection, 10-50% lethal doses, saline controls no survivors): survived over the 21-day experimental period | virus titers in the lungs, times lower than control mice ([5]; 2 to 6 days after the infection): more than 10 times | viral activity in the lungs ([5]; day 6): not detected

(−)-epigallocatechin gallate [EGCG]
EC50 [6]: 22 to 28 µM | inhibition of viral RNA synthesis [7]: about 80% | IC50 (neuraminidase): ~350 µM | CC50 (MDCK cells [8]): 275 ± 22.8 µM | hemagglutination inhibition activity [9]: most effective | toxicity relative to derivatives (MDCK cells [10]): less toxic than most of its derivatives | inhibition of plaque forming activity [11]: ~100%

C[C@@H]1O[C@@H](Oc2c(-c3ccc(O)c(O)c3)oc3cc(O)cc(O)c3c2=O)[C@H](O)[C@H](O)[C@H]1O [Q3R, quercetin 3-rhamnoside]
antiviral activity (influenza A/WS/33 virus; 10 μg/ml, 2 days incubation): about 66% | antiviral activity (influenza A/WS/33 virus; 100 μg/ml, 2 days incubation): about 86% | cell viability (MDCD cells): about 100%

CCOC(=O)C1=C[C@@H](OC(CC)CC)[C@H](NC(C)=O)[C@@H](N)C1 [Oseltamivir, reference compound]
antiviral activity (influenza A/WS/33 virus; 100 μg/ml, 2 days incubation): about 58% | antiviral activity (influenza A/WS/33 virus; concentrations of less than 10 μg/ml): less than 49% | cell viability (MDCD cells): about 100%
